Assay results published in the NIST ThermoML archive (doi:10.1016/j.jct.2009.05.009).
± gives the expanded uncertainty stated by the source.

Assay: xn = mol fraction of the nth substance listed
Settings: 101.3 kPa, Liquid, Vibrating tube method

CCCC[N+]1(C)CCCC1.O=S(=O)([N-]S(=O)(=O)C(F)(F)F)C(F)(F)F + O
mass density [kg/m3]
Settings | 298.21 K | 323.21 K
x2 = 0 | 1395.3 ± 2.6 | 1373.6 ± 2.5
x2 = 0.0298 | – | 1372.5 ± 2.5
x2 = 0.0435 | 1394 ± 2.5 | –
x2 = 0.0654 | 1393.2 ± 2.5 | –
x2 = 0.0673 | – | 1371.1 ± 2.5
x2 = 0.086 | 1392.3 ± 2.5 | –
x2 = 0.0913 | 1392.1 ± 2.5 | –
x2 = 0.1012 | – | 1369.9 ± 2.4
x2 = 0.1262 | 1390.7 ± 2.4 | –
x2 = 0.1396 | 1390.1 ± 2.4 | –
x2 = 0.1406 | – | 1368.3 ± 2.4
x2 = 0.1909 | 1388.1 ± 2.3 | –
x2 = 0.2033 | – | 1365.3 ± 2.3
x2 = 0.2228 | 1387.1 ± 2.3 | –

CCCC[n+]1ccn(C)c1.O=S(=O)([N-]S(=O)(=O)C(F)(F)F)C(F)(F)F + O
mass density [kg/m3]
Settings | 298.2 K | 323.21 K
x2 = 0 | 1437.1 ± 2.6 | 1413.8 ± 2.6
x2 = 0.0308 | 1435.7 ± 2.6 | –
x2 = 0.0482 | – | 1411.8 ± 2.5
x2 = 0.0753 | 1434 ± 2.5 | –
x2 = 0.0816 | – | 1410.5 ± 2.5
x2 = 0.119 | – | 1408.8 ± 2.4
x2 = 0.1194 | 1432.2 ± 2.5 | –
x2 = 0.1597 | – | 1407.1 ± 2.4
x2 = 0.1731 | 1430 ± 2.4 | –
x2 = 0.2141 | – | 1404.5 ± 2.3
x2 = 0.2391 | 1426.7 ± 2.3 | –
x2 = 0.2583 | – | 1402 ± 2.3

O [water] + CCOS(=O)(=O)[O-].CCn1cc[n+](C)c1
x1 = 1
Settings | mass density [kg/m3]
318.15 K | 990.1 ± 2
323.15 K | 988 ± 2
328.15 K | 985.7 ± 2
333.15 K | 983.2 ± 2
338.15 K | 980.5 ± 2
343.15 K | 977.8 ± 2

CCCC[N+](C)(C)C.O=S(=O)([N-]S(=O)(=O)C(F)(F)F)C(F)(F)F [butyltrimethylammonium bis(trifluoromethylsulfonyl)imide] + O
mass density [kg/m3]
Settings | x2 = 0 | x2 = 0.0387 | x2 = 0.0765 | x2 = 0.1132 | x2 = 0.14 | x2 = 0.189 | x2 = 0.2108 | x2 = 0.2322
293.15 K | 1399.5 ± 2.6 | 1398.4 ± 2.5 | 1397 ± 2.5 | 1395.3 ± 2.4 | 1394.1 ± 2.4 | 1392.4 ± 2.3 | 1391.8 ± 2.3 | 1391.2 ± 2.3
298.15 K | 1395 ± 2.6 | 1393.9 ± 2.5 | 1392.5 ± 2.5 | 1390.8 ± 2.4 | 1389.5 ± 2.4 | 1387.8 ± 2.3 | 1387.2 ± 2.3 | 1386.6 ± 2.3
303.15 K | 1390.5 ± 2.6 | 1389.4 ± 2.5 | 1388 ± 2.5 | 1386.3 ± 2.4 | 1385 ± 2.4 | 1383.2 ± 2.3 | 1382.5 ± 2.3 | 1381.8 ± 2.3
308.15 K | 1386.1 ± 2.5 | 1384.9 ± 2.5 | 1383.5 ± 2.5 | 1381.9 ± 2.4 | 1380.6 ± 2.4 | 1378.7 ± 2.3 | 1377.8 ± 2.3 | 1377.1 ± 2.3
313.15 K | 1381.6 ± 2.5 | 1380.5 ± 2.5 | 1379 ± 2.5 | 1377.4 ± 2.4 | 1376.1 ± 2.4 | 1374.1 ± 2.3 | 1373.2 ± 2.3 | 1372.4 ± 2.3
318.15 K | 1377.1 ± 2.5 | 1376 ± 2.5 | 1374.6 ± 2.5 | 1372.9 ± 2.4 | 1371.6 ± 2.4 | 1369.6 ± 2.3 | 1368.7 ± 2.3 | 1367.8 ± 2.3
323.15 K | 1372.6 ± 2.5 | 1371.5 ± 2.5 | 1370 ± 2.5 | 1368.4 ± 2.4 | 1367.1 ± 2.4 | 1365.1 ± 2.3 | 1364.1 ± 2.3 | 1363.2 ± 2.3
328.15 K | 1368.2 ± 2.5 | 1367 ± 2.5 | 1365.5 ± 2.4 | 1363.9 ± 2.4 | 1362.6 ± 2.4 | 1360.5 ± 2.3 | 1359.5 ± 2.3 | 1358.5 ± 2.3
333.15 K | 1363.7 ± 2.5 | 1362.4 ± 2.5 | 1360.9 ± 2.4 | 1359.3 ± 2.4 | 1358 ± 2.4 | 1355.8 ± 2.3 | 1354.8 ± 2.3 | 1353.7 ± 2.3
338.15 K | 1359.2 ± 2.5 | 1357.9 ± 2.5 | 1356.3 ± 2.4 | 1354.7 ± 2.4 | 1353.3 ± 2.4 | 1351.1 ± 2.3 | 1350 ± 2.3 | 1348.7 ± 2.3
343.15 K | 1354.8 ± 2.5 | 1353.4 ± 2.5 | 1351.8 ± 2.4 | 1350.2 ± 2.4 | 1348.7 ± 2.4 | 1346.4 ± 2.3 | 1345.1 ± 2.3 | 1343.8 ± 2.3

CCn1cc[n+](C)c1.O=S(=O)([N-]S(=O)(=O)C(F)(F)F)C(F)(F)F + O
mass density [kg/m3]
Settings | 298.19 K | 323.17 K
x2 = 0 | 1519.3 ± 2.8 | 1494.7 ± 2.7
x2 = 0.0209 | 1518.3 ± 2.8 | –
x2 = 0.0353 | – | 1493.1 ± 2.7
x2 = 0.0499 | 1516.9 ± 2.7 | –
x2 = 0.0581 | – | 1492 ± 2.7
x2 = 0.0631 | 1516.2 ± 2.7 | –
x2 = 0.0834 | – | 1490.6 ± 2.6
x2 = 0.1164 | – | 1488.7 ± 2.6
x2 = 0.1205 | 1513 ± 2.6 | –
x2 = 0.1608 | 1510.7 ± 2.5 | –
x2 = 0.1611 | – | 1486.2 ± 2.5
x2 = 0.2032 | 1508.1 ± 2.5 | –
x2 = 0.2221 | – | 1482.4 ± 2.4
x2 = 0.3025 | 1501.3 ± 2.3 | –

CCCCn1cc[n+](C)c1.F[B-](F)(F)F [1-butyl-3-methylimidazolium tetrafluoroborate] + O
mass density [kg/m3]
Settings | x2 = 0 | x2 = 0.0895 | x2 = 0.195 | x2 = 0.308 | x2 = 0.4996 | x2 = 0.75 | x2 = 0.899
298.15 K | 1201.1 ± 2.3 | 1198.3 ± 2.3 | 1194.4 ± 2.2 | 1189.3 ± 2.2 | 1177.8 ± 2.2 | 1147.9 ± 2.7 | 1100.7 ± 3.7
303.15 K | 1197.4 ± 2.3 | 1194.6 ± 2.3 | 1190.9 ± 2.2 | 1185.8 ± 2.2 | 1173.9 ± 2.3 | 1143.8 ± 2.7 | 1097.2 ± 3.7
333.15 K | 1175.4 ± 2.3 | 1172.8 ± 2.2 | 1169 ± 2.2 | 1163.9 ± 2.2 | 1151.5 ± 2.3 | 1121 ± 2.7 | 1076.4 ± 3.6
